The results in this text go back to patent US6727266B2, “Substituted tryptophan derivatives” (Shionogi & Co., Ltd., priority 2000, dated 2004).

One data set deals with T1, MMP-9 (Homo sapiens, UniProt P14780).
T1 construct: made in house; host or cells: Endogenous secretion by human fibrosarcoma HT1080 cells (ATCC) treated with TPA; purified from the culture medium
The data set can be described thus: Assay for inhibitory activities on MMP-9 (fluorogenic MOCAc peptide substrate). Type of data set: biochemical. Particulars: MMP-9 purified from human fibrosarcoma HT1080 cells, activated by TPCK-Trypsin. From the text:
MMP-9 was purified by using a combination of procedures described in the method descrived in Y. Okada et al. (Yasunori Okada, Yukio Gonoji, Katsumi Naka, Katsuro Tomita, Isao Nakanishi, Kazushi Iwata and Taro Hayakawa: Matrix metalloproteinase 9 (92-kDa gelatinase/type IV collagenase) from HT1080 human fibrosarcoma cells. Purification and activation of the precursor and enzymic properties. J. Biol. Chem., 267 (1992) 21712-21719 and the other method (1) Yasunori Okada, Tatsuhisa Morodomi, Jan J, Enghild, Ko Suzuki, Atsushi Yasui, Isao Nakanishi, Guy Salvesen and Hideaki Nagase: Matrix metalloproteinase 2 from human rheumatoid synovial fibroblasts. Purification and activation of the precursor and enzymic properties. Eur. J. Biochem. 194 (1990) 721-730 or (2) Robin V Ward, Rosalind M Hembry, John J Reynolds and Gillian Murphy: The purification of tissue inhibitor of metalloproteinase-2 from its 72 kDa progelatinase complex. Biochem. J. 278 (1991) 179-187. Briefly, human fibrosarcoma ATCC HT1080 cell line was cultured to confluent in Dulbecco's Modified Medium (DMEM) containing 10% fetal-calf serum (FCS) at 37° C. for 48 hours (5%). Further, Confluent Cell was cultured in DMEM removed FCS (2nd). To obtain MMP-9, Phorbol-12-myristate-13-acetate (TPA) was added to this DMEM medium at a concentration of 50 ng/ml. The TPA treated medium was centrifuged at 3000 rpm for 15 min and the supernatant was concentrated to 450 ml by a Toyo-Roshi UP-20 apparatus with an ultrafiltration membrane. Then, this concentrated solution was purified by Gelatin-Sepharose and Concanavalin A-Sepharose. The pool containing MMP-9 was dialyzed, concentrated (Toyo-Roshi UP-20) and applied to columns of Sephacryl S-200 and Green A matrix for the separation from TIMP. The obtained Procollagenase was activated by TPCK-Trypsin (final conc. 3 μg/μl reaction mix.) for the assay.
(§1) The enzymatic activity on each MMP was analyzed by the method described in “C Graham Knight, Frances Willenbrock and Gillian Murphy: A novel coumarin-labelled peptide for sensitive continuous assays of the matrix metalloproteinases: FEBS LETT., 296, (1992), 263-266”. The substrate: MOCAc-Pro-Leu-Gly-Leu-A2Pr(DNP)-Ala-Arg-NH2 was purchased from Peptide Institute, Inc., Osaka, Japan.
(§2) The measurement of the inhibitory activities of a compound (inhibitor) was carried out by the following four methods;
(§3) A) Reaction with substrate, enzyme (MMPs) and inhibitor
(§4) B) Reaction with substrate and inhibitor, without enzyme
(§5) C) Reaction with substrate and enzyme (MMPs), without inhibitor
(§6) D) Reaction with substrate only
(§7) Each fluorescence values of above four methods was measured and % inhibition was calculated by using the following formula.
(§8) % inhibition={1−(A−B)/(C−D)}×100
(§9) IC50 means the concentration required to inhibit 50% of the enzyme activity.

The next data set has as its target T2, MMP-2 (Homo sapiens, UniProt P08253).
T2 construct: purchased Calbiochem-Novabiochem International, Inc
T2 sequence (P08253 110-660): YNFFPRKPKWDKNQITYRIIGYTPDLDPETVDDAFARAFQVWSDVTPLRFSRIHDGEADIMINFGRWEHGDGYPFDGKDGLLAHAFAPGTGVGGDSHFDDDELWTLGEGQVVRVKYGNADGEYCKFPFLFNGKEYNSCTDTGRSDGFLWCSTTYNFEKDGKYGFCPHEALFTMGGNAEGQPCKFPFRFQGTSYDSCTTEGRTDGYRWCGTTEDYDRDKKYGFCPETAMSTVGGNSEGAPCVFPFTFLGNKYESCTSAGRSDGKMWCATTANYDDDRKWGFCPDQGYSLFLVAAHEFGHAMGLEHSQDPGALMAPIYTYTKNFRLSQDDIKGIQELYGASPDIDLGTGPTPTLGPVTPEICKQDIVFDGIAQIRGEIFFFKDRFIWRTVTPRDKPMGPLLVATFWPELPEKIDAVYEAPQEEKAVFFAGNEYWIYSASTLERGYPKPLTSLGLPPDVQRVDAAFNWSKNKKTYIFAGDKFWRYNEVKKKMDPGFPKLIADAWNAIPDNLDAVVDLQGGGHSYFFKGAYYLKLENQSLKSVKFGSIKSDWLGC
The data set can be described thus: Assay for inhibitory activities on MMP-2 (fluorogenic MOCAc peptide substrate). Type of data set: biochemical. The conditions noted are these: MMP-2 purchased from Calbiochem-Novabiochem. The method, then: MMP-2 was purchased from Calbiochem-Novabiochem International, Inc.
as §1, §2, §3, §4, §5, §6, §7, §8, §9

As usually defined, the melting point is the temperature, or range, at which the solid turns liquid. A word on the IC50: it is the concentration that inhibits the measured activity by half.

T1 sequence (P14780 107-707 limits assumed): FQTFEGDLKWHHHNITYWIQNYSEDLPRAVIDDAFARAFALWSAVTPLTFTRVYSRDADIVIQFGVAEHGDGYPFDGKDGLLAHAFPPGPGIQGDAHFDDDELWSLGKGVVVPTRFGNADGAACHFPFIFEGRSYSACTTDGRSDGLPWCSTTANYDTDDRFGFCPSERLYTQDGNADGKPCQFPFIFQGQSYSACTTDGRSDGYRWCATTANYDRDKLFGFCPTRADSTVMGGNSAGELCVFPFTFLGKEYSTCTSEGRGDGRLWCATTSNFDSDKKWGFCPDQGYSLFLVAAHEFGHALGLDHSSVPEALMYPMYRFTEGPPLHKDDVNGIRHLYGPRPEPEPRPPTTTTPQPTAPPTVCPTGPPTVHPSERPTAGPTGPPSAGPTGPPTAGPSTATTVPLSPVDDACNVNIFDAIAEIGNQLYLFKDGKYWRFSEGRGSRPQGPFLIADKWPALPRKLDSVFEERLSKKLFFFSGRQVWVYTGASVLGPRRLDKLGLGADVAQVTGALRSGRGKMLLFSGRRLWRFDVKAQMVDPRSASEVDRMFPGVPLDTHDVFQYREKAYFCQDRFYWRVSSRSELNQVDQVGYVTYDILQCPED

Consider `Cc1ccc(C#Cc2ccc(S(=O)(=O)N[C@H](Cc3c[nH]c4ccc(O)cc34)C(=O)O)s2)cc1` [Compound A-1], for which the melting point was 200 to 202 °C (dec.). Further, the IC50 at MMP-9 was 2.44 nM. Also, it took 0.223 nM to reach half-maximal inhibition against MMP-2 (IC50).

As to `COc1ccc2[nH]cc(C[C@@H](NS(=O)(=O)c3ccc(C#Cc4ccc(C)cc4)s3)C(=O)O)c2c1` [Compound A-2], the values for the IC50 on MMP-9 and against MMP-2 were 15.6 nM and 10.6 nM, respectively.

In the case of `COc1cccc2[nH]cc(C[C@@H](NS(=O)(=O)c3ccc(C#Cc4ccc(C)cc4)s3)C(=O)O)c12` [Compound A-3], the IC50 came to 174 nM on MMP-9 and 22.8 nM at MMP-2.

For the compound `Cc1ccc(C#Cc2ccc(S(=O)(=O)N[C@H](Cc3c[nH]c4cccc(O)c34)C(=O)O)s2)cc1` [Compound A-4], the IC50 on MMP-9 worked out at 24.3 nM; on MMP-2, 0.768 nM.

For the compound `Cc1ccc(C#Cc2ccc(S(=O)(=O)N[C@H](Cc3c[nH]c4c(O)cccc34)C(=O)O)s2)cc1` [Compound A-5], the IC50 on MMP-9 amounted to 6.49 nM; against MMP-2, 1.21 nM.

In the case of `Cc1ccc(C#Cc2ccc(S(=O)(=O)N[C@@H](Cc3c[nH]c4ccc(F)cc34)C(=O)O)s2)cc1` [Compound A-6], the IC50 amounted to 848 nM at MMP-9 and 90.8 nM on MMP-2.

With `COc1ccc2[nH]cc(C[C@@H](NS(=O)(=O)c3ccc(-c4ccc(N(C)C)cc4)s3)C(=O)O)c2c1` [Compound A-8], the IC50 on MMP-9 is 6.66 nM; on MMP-2 it was 0.617 nM.

`O=C(O)[C@@H](Cc1c[nH]c2ccc(F)cc12)NS(=O)(=O)c1ccc(-c2ccc(N3CCCC3)cc2)s1` [Compound A-9]: the IC50 at MMP-9 is 0.534 nM; on MMP-2, 0.137 nM.

As to `O=C(O)[C@H](Cc1c[nH]c2ccc(F)cc12)NS(=O)(=O)c1ccc(-c2ccc(N3CCCC3)cc2)s1` [Compound A-10], the IC50 at MMP-9 turned out to be 12 nM; against MMP-2 it was 4.04 nM.

On to `COc1ccc(-n2nnc(-c3ccc(S(=O)(=O)N[C@H](Cc4c[nH]c5ccc(OC)cc45)C(=O)O)cc3)n2)cc1` [Compound A-11], for which the IC50 at MMP-9 amounted to 16 nM; against MMP-2, 5.77 nM.

On to `O=C(O)[C@H](Cc1c[nH]c2ccc(F)cc12)NS(=O)(=O)c1ccc(-c2nnn(-c3ccccc3)n2)cc1` [Compound A-12], for which the IC50 amounted to 1420 nM on MMP-9 and 85.8 nM against MMP-2.
